Measured values taken from patent US8933232B2, “1,3,4-oxadiazole and 1,3,4-thiadiazole beta-lactamase inhibitors” (priority 2012, dated 2015).
Where a name gives a salt, the structure may show the parent alone.

Tested on: bacterial strains that express KPC β-lactamases
Assay: Synergy MIC / standard BLI potentiation MIC assay against strains expressing KPC β-lactamases
Format: cell-based
Conditions: in the presence of a β-lactam; comparator Avibactam
Protocol: The experimental protocol was performed according to Clinical and Laboratory Standards Institute (CLSI) guidelines with modifications as described below (CLSI guidelines can be derived from the CLSI document M07-A9 published in January 2012: “Methods for Dilution Antimicrobial Susceptibility Tests for Bacteria That Grow Aerobically; Approved Standard-Ninth Edition”).
To prepare for MIC testing, frozen glycerol stocks of clinical isolates (Klebsiella pneumoniae, Eschericia coli, Enterobacter spp, Citrobacter spp, or Pseudomonas aeruginosa) were used to streak for isolated colonies on rich, non-selective, tryptic soy agar containing 5% sheep's blood (TSAB). Frozen glycerol stocks of laboratory engineered, isogenic E. coli strains, which contain cloned β-lactamase expressing plasmids were used to streak for isolated colonies on rich, selective LB agar supplemented with 25 μg/mL tetracycline to maintain the plasmid. All strains were incubated at 37° C. for 18-24 hrs.
On the day of testing, primary cultures were started by scraping off 5-10 colonies from the TSAB plates containing clinical strains or the tetracycline supplemented LB plates containing engineered strains. The clinical strain material was suspended in ˜5 mL of cation adjusted Mueller Hinton Broth (CAMHB) in 14 mL culture tubes. The engineered strain material was suspended in CAMHB (supplemented with 25 μg/mL tetracycline) in 14 mL culture tubes. All strains were incubated at 37° C. with aeration (200 rpm) for ˜2 hrs until the optical density at 600 nm (OD600) was >0.1.
The two compound components of the assay were each diluted in CAMHB and added to the 96-well broth microdilution assay plates. 50 μL of the β-lactam was added to each well of the assay plate in 2-fold dilutions with final concentrations ranging from 128 to 0.13 μg/mL. 25 μL, of the BLI compound was added to all wells in the broth microdilution plates at a final concentration of 4 μg/mL. Inoculum cultures were prepared by standardizing the primary cultures to OD600=0.1 and then adding 20 μL of the adjusted primary culture per 1 mL CAMHB for clinical strains or CAMHB (supplemented with tetracycline at 100 μg/mL) for engineered strains, so that the final inoculum density was ˜10^5 colony forming units per milliliter. Diluted inoculum cultures were used to inoculate 25 μl, per well in 96-well broth microdilution assay plates. The final volume of each well was 100 μL and contained a β-lactam at different concentrations, a BLIcompound at 4 μg/mL concentration, the bacterial culture at an OD600 of approximately 0.001 and when necessary tetracycline at 25 μg/mL.
Plates were incubated for 18-20 hours at 37° C. with aeration (200 rpm). Following incubation, growth was confirmed visually placing plates over a viewing apparatus (stand with a mirror underneath) and then OD600 was measured using a SpectraMax 340PC384 plate reader (Molecular Devices, Sunnyvale, Calif.). Growth was defined as turbidity that could be detected with the naked eye or achieving minimum OD600 of 0.1. MIC values were defined as the lowest concentration producing no visible turbidity.
The synergy MIC (sMIC) assay determines the concentration of the BLI required to potentiate the activity of a fixed concentration of a β-lactam antibiotic against β-lactamase producing bacterial strains. The experimental protocol was performed according to Clinical and Laboratory Standards Institute (CLSI) guidelines with modifications as described below (CLSI guidelines can be derived from the CLSI document M07-A9 published in January 2012: “Methods for Dilution Antimicrobial Susceptibility Tests for Bacteria That Grow Aerobically; Approved Standard-Ninth Edition”). […]

SMILES	more active than Avibactam for at least one bacterial strain that expresses KPC β-lactamase and/or better spectrum of activity against KPC strains
NC1CC(NCc2nnc([C@@H]3CC[C@@H]4CN3C(=O)N4OS(=O)(=O)O)o2)C1 (stereo partly drawn) [Compound 755, (2S,5R)-2-(5-(((3-aminocyclobutyl)amino)methyl)-1,3,4-oxadiazol-2-yl)-7-oxo-1,6-diazabicyclo[3.2.1]octan-6-yl hydrogen sulfate]	more active than Avibactam
N[C@H]1C[C@@H](NCc2nnc([C@@H]3CC[C@@H]4CN3C(=O)N4OS(=O)(=O)O)o2)C1 [Compound 756, (2S,5R)-2-(5-((((1s,3R)-3-aminocyclobutyl)amino)methyl)-1,3,4-oxadiazol-2-yl)-7-oxo-1,6-diazabicyclo[3.2.1]octan-6-yl hydrogen sulfate]	more active than Avibactam
O=C1N2C[C@@H](CC[C@H]2c2nnc([C@H]3CCNC3)o2)N1OS(=O)(=O)O [Compound 758, (2S,5R)-7-oxo-2-(5-((S)-pyrrolidin-3-yl)-1,3,4-oxadiazol-2-yl)-1,6-diazabicyclo[3.2.1]octan-6-yl hydrogen sulfate]	more active than Avibactam
O=C1N2C[C@@H](CC[C@H]2c2nnc([C@@H]3CCNC3)o2)N1OS(=O)(=O)O [Compound 759, (2S,5R)-7-oxo-2-(5-((R)-pyrrolidin-3-yl)-1,3,4-oxadiazol-2-yl)-1,6-diazabicyclo[3.2.1]octan-6-yl hydrogen sulfate]	more active than Avibactam
N[C@@H]1CN[C@H](c2nnc([C@@H]3CC[C@@H]4CN3C(=O)N4OS(=O)(=O)O)o2)C1 [Compound 760, (2S,5R)-2-(5-((2S,4S)-4-aminopyrrolidin-2-yl)-1,3,4-oxadiazol-2-yl)-7-oxo-1,6-diazabicyclo[3.2.1]octan-6-yl hydrogen sulfate]	more active than Avibactam
N[C@H]1CN[C@@H](c2nnc([C@@H]3CC[C@@H]4CN3C(=O)N4OS(=O)(=O)O)o2)C1 [Compound 761, (2S,5R)-2-(5-((2R,4R)-4-aminopyrrolidin-2-yl)-1,3,4-oxadiazol-2-yl)-7-oxo-1,6-diazabicyclo[3.2.1]octan-6-yl hydrogen sulfate]	more active than Avibactam
N[C@H]1CN[C@H](c2nnc([C@@H]3CC[C@@H]4CN3C(=O)N4OS(=O)(=O)O)o2)C1 [Compound 762, (2S,5R)-2-(5-((2S,4R)-4-aminopyrrolidin-2-yl)-1,3,4-oxadiazol-2-yl)-7-oxo-1,6-diazabicyclo[3.2.1]octan-6-yl hydrogen sulfate]	more active than Avibactam
N[C@@H]1CN[C@@H](c2nnc([C@@H]3CC[C@@H]4CN3C(=O)N4OS(=O)(=O)O)o2)C1 [Compound 763, (2S,5R)-2-(5-((2R,4S)-4-aminopyrrolidin-2-yl)-1,3,4-oxadiazol-2-yl)-7-oxo-1,6-diazabicyclo[3.2.1]octan-6-yl hydrogen sulfate]	more active than Avibactam
O=C1N2C[C@@H](CC[C@H]2c2nnc(CC3CCNC3)o2)N1OS(=O)(=O)O (stereo partly drawn) [Compound 764, (2S,5R)-7-oxo-2-(5-(pyrrolidin-3-ylmethyl)-1,3,4-oxadiazol-2-yl)-1,6-diazabicyclo[3.2.1]octan-6-yl hydrogen sulfate]	more active than Avibactam
O=C1N2C[C@@H](CC[C@H]2c2nnc(CN[C@H]3CCNC3)o2)N1OS(=O)(=O)O [Compound 765, (2S,5R)-7-oxo-2-(5-(((S)-pyrrolidin-3-ylamino)methyl)-1,3,4-oxadiazol-2-yl)-1,6-diazabicyclo[3.2.1]octan-6-yl hydrogen sulfate]	more active than Avibactam
O=C1N2C[C@@H](CC[C@H]2c2nnc(CN[C@@H]3CCNC3)o2)N1OS(=O)(=O)O [Compound 766, (2S,5R)-7-oxo-2-(5-(((R)-pyrrolidin-3-ylamino)methyl)-1,3,4-oxadiazol-2-yl)-1,6-diazabicyclo[3.2.1]octan-6-yl hydrogen sulfate]	more active than Avibactam
N=C1NCC(c2nnc([C@@H]3CC[C@@H]4CN3C(=O)N4OS(=O)(=O)O)o2)N1 (stereo partly drawn) [Compound 767, (2S,5R)-2-(5-(2-iminoimidazolidin-4-yl)-1,3,4-oxadiazol-2-yl)-7-oxo-1,6-diazabicyclo[3.2.1]octan-6-yl hydrogen sulfate]	more active than Avibactam
N[C@H]1CC[C@@H](c2nnc([C@@H]3CC[C@@H]4CN3C(=O)N4OS(=O)(=O)O)o2)C1 [Compound 768, (2S,5R)-2-(5-((1R,3S)-3-aminocyclopentyl)-1,3,4-oxadiazol-2-yl)-7-oxo-1,6-diazabicyclo[3.2.1]octan-6-yl hydrogen sulfate]	more active than Avibactam
O=C1N2C[C@@H](CC[C@H]2c2nnc(CCNC3CCNCC3)o2)N1OS(=O)(=O)O [Compound 770, (2S,5R)-7-oxo-2-(5-(2-(piperidin-4-ylamino)ethyl)-1,3,4-oxadiazol-2-yl)-1,6-diazabicyclo[3.2.1]octan-6-yl hydrogen sulfate]	more active than Avibactam
O=C1N2C[C@@H](CC[C@H]2c2nnc(CCCNC3CCNCC3)o2)N1OS(=O)(=O)O [Compound 771, (2S,5R)-7-oxo-2-(5-(3-(piperidin-4-ylamino)propyl)-1,3,4-oxadiazol-2-yl)-1,6-diazabicyclo[3.2.1]octan-6-yl hydrogen sulfate]	more active than Avibactam
O=C1N2C[C@@H](CC[C@H]2c2nnc(CCCCNC3CCNCC3)o2)N1OS(=O)(=O)O [Compound 772, (2S,5R)-7-oxo-2-(5-(4-(piperidin-4-ylamino)butyl)-1,3,4-oxadiazol-2-yl)-1,6-diazabicyclo[3.2.1]octan-6-yl hydrogen sulfate]	more active than Avibactam
NC1CCN(Cc2nnc([C@@H]3CC[C@@H]4CN3C(=O)N4OS(=O)(=O)O)o2)CC1 [Compound 774, (2S,5R)-2-(5-((4-aminopiperidin-1-yl)methyl)-1,3,4-oxadiazol-2-yl)-7-oxo-1,6-diazabicyclo[3.2.1]octan-6-yl hydrogen sulfate]	more active than Avibactam
NC1CCN(CCc2nnc([C@@H]3CC[C@@H]4CN3C(=O)N4OS(=O)(=O)O)o2)CC1 [Compound 775, (2S,5R)-2-(5-(2-(4-aminopiperidin-1-yl)ethyl)-1,3,4-oxadiazol-2-yl)-7-oxo-1,6-diazabicyclo[3.2.1]octan-6-yl hydrogen sulfate]	more active than Avibactam
O=C1N2C[C@@H](CC[C@H]2c2nnc(CCN3CCNCC3)o2)N1OS(=O)(=O)O [Compound 776, (2S,5R)-7-oxo-2-(5-(2-(piperazin-1-yl)ethyl)-1,3,4-oxadiazol-2-yl)-1,6-diazabicyclo[3.2.1]octan-6-yl hydrogen sulfate]	more active than Avibactam
